Reference: PubChem BioAssay AID1963852 (Molecular Pharmacology Branch, DTP, NCI, 2024)

Tested on: 282377-053-R-J1-PDC complex spheroid viability
Test: Anticancer human tumor 282377-053-R-J1-PDC patient-derived colon adenocarcinoma cell line growth inhibition [POLQ]
Conditions: for IC50: curve of first compound; for viability, T/C: stronger effect = lower value
Method in brief: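 Growth inhibition in 3D: complex spheroids (tumor PDC, HUVEC, MSC) treated with POLQ inhibitor combinations; where Cmax unknown, highest tested concentration 10 microM, except SN-38 at 1 microM.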

[1] = second compound 0.0316 µM, first compound 0.0316 µM
[2] = second compound 0.0316 µM, first compound 0.1 µM
[3] = second compound 0.0316 µM, first compound 0.316 µM
[4] = second compound 0.0316 µM, first compound 1 µM
[5] = second compound 0.1 µM, first compound 0.0316 µM
[6] = second compound 0.1 µM, first compound 0.1 µM
[7] = second compound 0.1 µM, first compound 0.316 µM
[8] = second compound 0.1 µM, first compound 1 µM
[9] = second compound 0.316 µM, first compound 0.0316 µM
[10] = second compound 0.316 µM, first compound 0.1 µM
[11] = second compound 0.316 µM, first compound 0.316 µM
[12] = second compound 0.316 µM, first compound 1 µM
[13] = second compound 1 µM, first compound 0.0316 µM
[14] = second compound 1 µM, first compound 0.1 µM
[15] = second compound 1 µM, first compound 0.316 µM
[16] = second compound 1 µM, first compound 1 µM
[17] = second compound 3.16 µM, first compound 0.0316 µM
[18] = second compound 3.16 µM, first compound 0.1 µM
[19] = second compound 3.16 µM, first compound 0.316 µM
[20] = second compound 3.16 µM, first compound 1 µM
[21] = second compound 10 µM, first compound 0.0316 µM
[22] = second compound 10 µM, first compound 0.1 µM
[23] = second compound 10 µM, first compound 0.316 µM
[24] = second compound 10 µM, first compound 1 µM
[25] = second compound 0.0316 µM, first compound 0.00316 µM
[26] = second compound 0.0316 µM, first compound 0.01 µM
[27] = second compound 0.1 µM, first compound 0.00316 µM
[28] = second compound 0.1 µM, first compound 0.01 µM
[29] = second compound 0.316 µM, first compound 0.00316 µM
[30] = second compound 0.316 µM, first compound 0.01 µM
[31] = second compound 1 µM, first compound 0.00316 µM
[32] = second compound 1 µM, first compound 0.01 µM
[33] = second compound 3.16 µM, first compound 0.00316 µM
[34] = second compound 3.16 µM, first compound 0.01 µM
[35] = second compound 10 µM, first compound 0.00316 µM
[36] = second compound 10 µM, first compound 0.01 µM
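Note: spheroids exposed to compounds for seven days.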
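Throughout, for viability, T/C: 100% = DMSO vehicle control viability.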

`O=c1[nH]cc(F)c(=O)[nH]1` + COC1C(OC(N)=O)C(O)C(Oc2ccc3c(O)c(NC(=O)c4ccc(O)c(CC=C(C)C)c4)c(=O)oc3c2C)OC1(C)C was tested, and the IC50 (second compound 0.0316 µM) was > 10000 nM, the IC50 (second compound 0.1 µM) was > 10000 nM and the IC50 (second compound 0.316 µM) was > 10000 nM. The IC50 (second compound 1 µM) was > 10000 nM, the IC50 (second compound 3.16 µM) was > 10000 nM and the IC50 (second compound 10 µM) was > 10000 nM. The viability, T/C [1] was 112%, the viability, T/C [2] was 89% and the viability, T/C [3] was 104%. It also gave a viability, T/C [4] of 92%, a viability, T/C (second compound 0.0316 µM, first compound 3.16 µM) of 74.6% and a viability, T/C (second compound 0.0316 µM, first compound 10 µM) of 66.9%. The viability, T/C [5] was 109%, the viability, T/C [6] was 107% and the viability, T/C [7] was 90.9%. It also gave a viability, T/C [8] of 89.7%, a viability, T/C (second compound 0.1 µM, first compound 3.16 µM) of 72.1% and a viability, T/C (second compound 0.1 µM, first compound 10 µM) of 71%. It also gave a viability, T/C [9] of 112%, a viability, T/C [10] of 125% and a viability, T/C [11] of 97.1%. The viability, T/C [12] was 81.5%, the viability, T/C (second compound 0.316 µM, first compound 3.16 µM) was 77.7% and the viability, T/C (second compound 0.316 µM, first compound 10 µM) was 71.1%. It also gave a viability, T/C [13] of 112%, a viability, T/C [14] of 97.9% and a viability, T/C [15] of 94.4%. It also gave a viability, T/C [16] of 86.4%, a viability, T/C (second compound 1 µM, first compound 3.16 µM) of 79.6% and a viability, T/C (second compound 1 µM, first compound 10 µM) of 71.2%. It also gave a viability, T/C [17] of 102%, a viability, T/C [18] of 101% and a viability, T/C [19] of 88.1%. The viability, T/C [20] was 100%, the viability, T/C (second compound 3.16 µM, first compound 3.16 µM) was 80.7% and the viability, T/C (second compound 3.16 µM, first compound 10 µM) was 66.8%. The viability, T/C [21] was 105%, the viability, T/C [22] was 103% and the viability, T/C [23] was 115%. For the same molecule, the viability, T/C [24] was 98%, the viability, T/C (second compound 10 µM, first compound 3.16 µM) was 82.2% and the viability, T/C (second compound 10 µM, first compound 10 µM) was 63.5%.

In the case of `CC[C@@]1(O)C(=O)OCc2c1cc1n(c2=O)Cc2cc3c(CN(C)C)c(O)ccc3nc2-1` + COC1C(OC(N)=O)C(O)C(Oc2ccc3c(O)c(NC(=O)c4ccc(O)c(CC=C(C)C)c4)c(=O)oc3c2C)OC1(C)C, the IC50 (second compound 0.0316 µM) is reported as > 100 nM, the IC50 (second compound 0.1 µM) is reported as > 100 nM and the IC50 (second compound 0.316 µM) is reported as > 100 nM. For the same molecule, the IC50 (second compound 1 µM) was > 100 nM, the IC50 (second compound 3.16 µM) was > 100 nM and the IC50 (second compound 10 µM) was > 100 nM. The viability, T/C (second compound 0.0316 µM, first compound 0.000316 µM) was 120%, the viability, T/C (second compound 0.0316 µM, first compound 0.001 µM) was 114% and the viability, T/C [25] was 119%. For the same molecule, the viability, T/C [26] was 99.6%, the viability, T/C [1] was 112% and the viability, T/C [2] was 72%. It also gave a viability, T/C (second compound 0.1 µM, first compound 0.000316 µM) of 130%, a viability, T/C (second compound 0.1 µM, first compound 0.001 µM) of 106% and a viability, T/C [27] of 116%. The viability, T/C [28] was 115%, the viability, T/C [5] was 106% and the viability, T/C [6] was 64.6%. For the same molecule, the viability, T/C (second compound 0.316 µM, first compound 0.000316 µM) was 106%, the viability, T/C (second compound 0.316 µM, first compound 0.001 µM) was 105% and the viability, T/C [29] was 85.3%. It also gave a viability, T/C [30] of 100%, a viability, T/C [9] of 110% and a viability, T/C [10] of 69.3%. It also gave a viability, T/C (second compound 1 µM, first compound 0.000316 µM) of 101%, a viability, T/C (second compound 1 µM, first compound 0.001 µM) of 112% and a viability, T/C [31] of 131%. For the same molecule, the viability, T/C [32] was 91.2%, the viability, T/C [13] was 91.8% and the viability, T/C [14] was 70.5%. The viability, T/C (second compound 3.16 µM, first compound 0.000316 µM) was 102%, the viability, T/C (second compound 3.16 µM, first compound 0.001 µM) was 105% and the viability, T/C [33] was 97.5%. For the same molecule, the viability, T/C [34] was 123%, the viability, T/C [17] was 111% and the viability, T/C [18] was 58.5%. It also gave a viability, T/C (second compound 10 µM, first compound 0.000316 µM) of 112%, a viability, T/C (second compound 10 µM, first compound 0.001 µM) of 110% and a viability, T/C [35] of 111%. It also gave a viability, T/C [36] of 80.7%, a viability, T/C [21] of 102% and a viability, T/C [22] of 70.3%.

Work on `COc1cccc(OCCCN)c1-c1cc(Nc2cnc(C#N)cn2)n[nH]1` + COC1C(OC(N)=O)C(O)C(Oc2ccc3c(O)c(NC(=O)c4ccc(O)c(CC=C(C)C)c4)c(=O)oc3c2C)OC1(C)C yielded an IC50 (second compound 0.0316 µM) of 124 nM, an IC50 (second compound 0.1 µM) of 56.2 nM and an IC50 (second compound 0.316 µM) of 92.6 nM. For the same molecule, the IC50 (second compound 1 µM) was 111 nM, the IC50 (second compound 3.16 µM) was 148 nM and the IC50 (second compound 10 µM) was 93.6 nM. For the same molecule, the viability, T/C [25] was 117%, the viability, T/C [26] was 106% and the viability, T/C [1] was 92.7%. It also gave a viability, T/C [2] of 51.4%, a viability, T/C [3] of 37.4% and a viability, T/C [4] of 29.5%. It also gave a viability, T/C [27] of 106%, a viability, T/C [28] of 114% and a viability, T/C [5] of 63.9%. The viability, T/C [6] was 46.2%, the viability, T/C [7] was 34.9% and the viability, T/C [8] was 25.6%. For the same molecule, the viability, T/C [29] was 118%, the viability, T/C [30] was 83.9% and the viability, T/C [9] was 75.2%. It also gave a viability, T/C [10] of 46.4%, a viability, T/C [11] of 31.5% and a viability, T/C [12] of 30.9%. The viability, T/C [31] was 111%, the viability, T/C [32] was 76% and the viability, T/C [13] was 67.9%. It also gave a viability, T/C [14] of 60.6%, a viability, T/C [15] of 31% and a viability, T/C [16] of 33.2%. The viability, T/C [33] was 87.9%, the viability, T/C [34] was 84.3% and the viability, T/C [17] was 74.3%. For the same molecule, the viability, T/C [18] was 49.3%, the viability, T/C [19] was 46.9% and the viability, T/C [20] was 30.5%. The viability, T/C [35] was 99.8%, the viability, T/C [36] was 81.4% and the viability, T/C [21] was 70.1%. The viability, T/C [22] was 47.4%, the viability, T/C [23] was 34.6% and the viability, T/C [24] was 26.5%.
